# Patent US20060276416A1, “Methods and compositions for treating flushing and drug induced weight gain” (Sirtris Pharmaceuticals, Inc., priority 2005, published 2006)
# Values joined by “and” are separate entries in the source; they are usually repeats but may differ in a detail not shown here. Identical values can stand only once.
# Tests used:
# [1] = test system: AMPK at Thr172 and ACC at serine 79; assay: AMPK and ACC phosphorylation Western in CHO-HIR cells; format: cell-based; details: AICAR 500 μM; resveratrol 12.5, 25 or 50 μM; 30 minutes
# Procedure: Cells were harvested after 30 minutes and lysates were immediately boiled in SDS and subjected to Western analysis with site-specific antibodies. Phosphorylation of AMPK at Thr172 indicates activation of the kinase. Active AMPK phosphorylates and inactivates ACC at serine 79.
# [2] = test system: H4IIEC3 cells; assay: Oxidation of 14C-palmitate (14C-CO2 production); format: cell-based; details: resveratrol 10 μM, AICAR 500 μM, metformin 1 mM; 4 hours; vehicle 1
# Procedure: (§1) Oxidation of ^14C-palmitate to acid-soluble products (modified from […] cells ([…]. and B. E. Kemp, J Biol Chem (1992) 267(5): 2864-7) and HepG2 cells were maintained as described above. Cells (10^6 cells/T25) were seeded in a T25 flask one day prior to the experiment. […] At the end of incubation, the cap of each […]per and a 1'×1.5'' Whatman filter paper soaked with 250 μl 2N NaOH. Each flask was injected with 2 ml of 6N HCL, placed in a horizontal position for 10 minutes and left standing overnight. […] The experiment was repeated three times.
# [3] = test system: HepG2 cells; assay: Oxidation of 14C-palmitate (14C-CO2 production); format: cell-based; details: resveratrol 10 μM, AICAR 500 μM, metformin 1 mM; 4 hours; vehicle 1
# Procedure: as §1
# [4] = molecular target: T1, SIRT1 deacetylase (BIOMOL) (Homo sapiens, UniProt Q96EB6); assay: High-throughput SIRT1 screening protocol (Fluor de Lys-SIRT1, 384 well); format: biochemical; details: positive controls; roughly 50 μM, 200 μM NAD+, 5 μM Fluor de Lys-SIRT1
# T1 construct: purchased BIOMOL
# T1 sequence (Q96EB6 1-747): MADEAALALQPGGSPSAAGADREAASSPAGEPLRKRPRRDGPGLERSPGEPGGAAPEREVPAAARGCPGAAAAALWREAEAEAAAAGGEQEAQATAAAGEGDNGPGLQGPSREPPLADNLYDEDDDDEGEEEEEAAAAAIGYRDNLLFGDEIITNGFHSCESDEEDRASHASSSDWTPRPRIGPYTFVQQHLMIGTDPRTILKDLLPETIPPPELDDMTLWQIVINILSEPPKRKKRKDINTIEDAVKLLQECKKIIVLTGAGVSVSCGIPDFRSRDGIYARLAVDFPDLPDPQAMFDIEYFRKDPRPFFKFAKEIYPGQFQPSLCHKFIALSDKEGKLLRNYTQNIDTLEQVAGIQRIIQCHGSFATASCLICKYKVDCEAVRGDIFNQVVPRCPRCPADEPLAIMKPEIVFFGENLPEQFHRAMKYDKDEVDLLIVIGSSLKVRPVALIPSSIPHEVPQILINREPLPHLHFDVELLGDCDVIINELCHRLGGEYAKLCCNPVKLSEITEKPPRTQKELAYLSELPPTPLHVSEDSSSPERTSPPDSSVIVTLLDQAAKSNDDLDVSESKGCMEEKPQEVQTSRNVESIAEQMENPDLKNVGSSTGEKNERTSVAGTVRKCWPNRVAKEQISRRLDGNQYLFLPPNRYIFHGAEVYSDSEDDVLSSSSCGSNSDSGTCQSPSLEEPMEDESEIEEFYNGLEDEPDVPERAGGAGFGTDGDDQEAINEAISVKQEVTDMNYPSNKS
# Procedure: The reaction mixture contains (final): 0.5 units/reaction SIRT1 deacetylase (BIOMOL); 200 μM NAD^+; 5 μM Fluor de Lys-SIRT1 substrate (BIOMOL); buffer (25 mM Tris/Cl, pH 8.0, 137 mM NaCl, 2.7 mM KCl, 1 mM MgCl2, and 1 mg/ml BSA). In addition, a reaction mixture containing no enzyme was made so that each well receiving compound has a corresponding “no enzyme control” well. Reactions were performed in black 384 well plates (NUNC) in a final volume of 25 μl/well.
# The reactions were started by combining enzyme and substrate in a reaction mixture immediately prior to aliquoting in plates (or substrate only for “no enzyme control” plates). Mixture were aliquoted to plates using Biotek μFill (Biotek Instruments). Control mixtures were manually added to designated wells. A library compound was added at a desired concentration by pin transfer to both “with enzyme” and “no enzyme” plates. Compounds were added in at least triplicate (with enzyme reaction in duplicate and no enzyme controls) at a final concentration of roughly 50 μM. The plates were incubated at 37° C. for 30-60 minutes. Then 25 μl of 1× Developer II (BIOMOL) plus 2 mM nicotinamide were added to all wells to stop the reactions. The reactions were left for at least 30 minutes at 37° C. for the signal to develop. The plates were read in a microplate-reading fluorometer capable of excitation at a wavelength in the range of 350-380 nm and detection of emitted light in the range of 440-460 nm. A read time of 0.1 sec per well was used.
# [5] = test system: C. elegans; assay: C. elegans fat accumulation, Nile Red staining; format: in vivo; details: for Concentration as low as which fat accumulation is reduced: 10, 50 and 100 μM tested
# Procedure: Fat accumulation was visualized with Nile Red staining, as described further below and in Ashrafi K, et al. Nature 421:268-27 (2003).
# Synchronized starved L1 worms were grown in the presence of Nile Red. Strains were grown on NGM plates at 25° C. for approximately 48 hours until the young adult stage was reached. 20-30 young adult worms were then washed 2× with M9 buffer and transferred to new NGM/Nile red experimental plates that contained either OP50 or HTT5 E. coli carrying the L4440 RNAi control vector.
# Young adults were transferred to plates containing the appropriate vector, Nile Red stain and drug then maintained at 25° C.
# Nile Red: Nile Red Powder (Sigma #N-3013) was dissolved in acetone at 500 μg/ml, diluted in 1× Phosphate Buffered Saline (PBS) including appropriate drug and applied to surface of Nematode Growth Media (NGM) plates previously seeded with OP50 or RNAi bacteria, at a final concentration of 0.05 μg/ml. Fat content was monitored and recorded by fluorescence microscopy.
# [6] = test system: D. melanogaster; assay: D. melanogaster survival (lifespan) assay; format: in vivo
# Procedure: Survival assays were conducted independently with adult D. melanogaster in two laboratories. In the first laboratory, all trials used an yw marked wild-type strain. Larvae were reared on standard cornmeal-sugar-yeast (CSY) agar diet (cornmeal 5%, sucrose 10.5%, SAF yeast 2%, and agar 0.7%). Newly eclosed adults were placed in 1 L demography cages with approximately 75 males and 75 females. Three to four replicate 1 L demography cages were used for each treatment group in each trial. Every two days, dead flies were removed and scored, and food vials were replenished. Food vials contained cornmeal-sugar-yeast diet with SAF yeast as either 2% or 3% by weight. Test compounds in 100 μl of EtOH (or blank EtOH in controls) were mixed into melted aliquots of the adult food media to make a final concentration of 0, 10 or 100 μM. Fresh stock solutions and adult media were prepared weekly. In the second laboratory, lifespan trials were conducted with the wild type strain Canton-S, dSir2^4.5 and dSir2^5.26 (S. Smolik, University of Oregon), dSir2^17 (S. Astrom, Stockholm University, Sweden), and dSir2^KG00871 (Drosophila Stock Center, Bloomington, Ind.). Larvae for all tests were reared on standard cornmeal-sugar-yeast diet. Newly eclosed adults were incubated in plastic shell vials containing 5 ml of 15% sugar-yeast diet (15% SY) or 5% sugar-yeast (5% SY) diet (15% SY: 15% yeast, 15% sucrose, 2% agar; 5% SY: 5% yeast, 5% sucrose, 2% agar as per Ref.^20). In all trials, ˜20 males with ˜20 females were placed into each of 10 vials/treatment group. Every two days, flies were passed into new vials and dead flies were counted. […] Final compound concentrations were 0, 10, 100 or 200 μM. Fresh stock solution and adult media was prepared weekly.
# [7] = molecular target: T2, recombinant human SIRT1 (Homo sapiens, UniProt Q96EB6); assay: SIRT1 fluorescent deacetylation assay (p53-382 acetylated peptide); format: biochemical
# T2 sequence (Q96EB6 1-747): T1 sequence (Q96EB6 1-747)
# Procedure: To identify compounds that modulate SIRT1 activity, a number of small molecule libraries were screened using a fluorescent deacetylation assay in 96-well plates^26. The substrate used in the assay was a fluorogenic peptide based on the sequence encompassing the p53-K382 acetylation site, a known target of SIRT1 in vivo^20,21,27. […] The small molecule libraries included analogues of nicotinamide, ε-acetyl lysine, NAD^+, nucleotides, nucleotide analogues and purinergic ligands.
# From 0.1 to 1 μg of SIRT1 and 1.5 μg of Sir2 were used per deacetylation assay (in 50 μl total reaction) as previously described^26. SIRT1 assays and certain of those for Sir2 employed the p53-382 acetylated substrate (‘Fluor de Lys-SIRT1’, BIOMOL) rather than FdL.
# Themed compound libraries (BIOMOL) were used for primary and secondary screening. Most polyphenol compounds were dissolved at 10 mM in dimethylsulfoxide (DMSO) on the day of the assay. For water soluble compounds and negative controls, 1% v/v DMSO was added to the assay. In vitro fluorescence assay results were read in white ½-volume 96-well microplates (Corning Costar 3693) with a CytoFluor™ II fluorescence plate reader (PerSeptive Biosystems, Ex. 360 nm, Em. 460 nm, gain=85). […] Unless otherwise indicated all initial rate measurements were means of three or more replicates, obtained with single incubation times, at which point 5% or less of the substrate initially present had been deacetylated. Calculation of net fluorescence increases included subtraction of a blank value, which in the case of Sir2 was obtained by omitting the enzyme from the reaction and in the case of SIRT1 by adding an inhibitor (200 μM suramin or 1 mM nicotinamide) to the reaction prior to the acetylated substrate. A number of the polyphenols partially quenched the fluorescence produced in the assay and correction factors were obtained by determining the fluorescence increase due to a 3 μM spike of an FdL deacetylated standard (BIOMOL, catalog number KI-142). All error bars represent the standard error of the mean.
# All SIRT1 rate measurements used in the calculation of “Ratio to Control Rate” were obtained with 25 μM NAD^+ and 25 μM p53-382 acetylated peptide substrate were performed as described above and in K. T. Howitz et al. Nature (2003) 425: 191. All ratio data were calculated from experiments in which the total deacetylation in the control reaction was 0.25-1.25 μM peptide or 1-5% of the initial concentration of acetylated peptide.
# [8] = test system: S. cerevisiae; assay: Yeast replicative lifespan by micro-manipulation; format: cell-based; details: 10 μM
# Procedure: Average lifespan for wild type, 22.9 generations, quercetin, 23.4; piceatannol.
# Lifespan measurements were performed using PSY316AT MATα as previously described^35. All compounds for lifespan analyses were dissolved in 95% ethanol and plates were dried and used within 24 hours. Prior to lifespan analysis, cells were pre-incubated on their respective media for at least 15 hours. Following transfer to a new plate, cells were equilibrated on the medium for a minimum of 4 hours prior to micro-manipulating them. At least 30 cells were examined per experiment and each experiment was performed at least twice. Statistical significance of lifespan differences was determined using the Wilcoxon rank sum test. Differences are stated to be significant when the confidence is higher than 95%.
# [9] = molecular target: p53-382 acetylated peptide substrate ('Fluor de Lys-SIRT1', BIOMOL) (human) (UniProt P04637)
# [10] = test system: TNF-alpha treated adipocytes; assay: Radioactive glucose uptake in TNF-alpha treated insulin resistant adipocytes; format: cell-based; details: resveratrol 5 μM or 15 μM; roziglitazone 4 μM
compound,measurement,setting,value
"NC(=O)c1ncn([C@@H]2O[C@H](CO)[C@@H](O)[C@H]2O)c1N [AICAR, 5-aminoimidazole-4-carboxamide-1-beta-D-ribofuranoside]",Phosphorylation of AMPK and ACC,[1],stimulates phosphorylation of AMPK and ACC
same,14C-CO2 production (nmol/hr/10^6 cells) (Fold Effect),[2],2.3 fold
same,14C-CO2 production (nmol/hr/10^6 cells) (Fold Effect),[3],5 fold
"COc1ccc(/C=C/c2cc(O)cc(O)c2)cc1 [BML-233, 3,5-Dihydroxy-4′-methoxy-trans-stilbene]",Activation of SIRT1,[4],2.1 fold
CN(C)C(=N)N=C(N)N [Metformin],14C-CO2 production (nmol/hr/10^6 cells) (Fold Effect),[2],2 fold
same,14C-CO2 production (nmol/hr/10^6 cells) (Fold Effect),[3],3.5 fold
"Oc1cc(O)cc(/C=C/c2ccccc2)c1 [Pinosylvin, 3,5-Dihydroxy-trans-stilbene]",Activation of SIRT1,[4],3.28 fold
"C(=C/c1ccccc1)/c1ccccc1 [cis-stilbene, cis-Stilbene]",Fat staining,"[5]; 100 μM, 48 hours, control 2.5% v/v DMSO",No significant effect
"O=c1c(O)c(-c2ccc(O)c(O)c2)oc2cc(O)ccc12 [fisetin, 3,7,3′,4′-Tetrahyddroxyflavone]",Longevity under restricted diet,[6]; restricted diet,neither resveratrol nor fisetin further increased longevity
same,Lifespan extension,"[6]; wild type strains, males and females, independent tests, maximum",up to 23%
same,Fat mobilization,"[5]; 100 μM, 48 hours",stimulate fat mobilization
same,Concentration as low as which fat accumulation is reduced,[5]; 48 hours,10 µM
NC(=O)c1cccnc1 [nicotinamide],Vmax decrease,"[7]; 50 μM nicotinamide, absence of resveratrol, two determinations (varying NAD+ or p53-382 peptide)",30% and 36%
same,Fat accumulation,"[5]; 0, 1 or 10 mM nicotinamide, overnight",concentration dependent increase in fat accumulation
"Oc1cc(O)cc(/C=C/c2ccc(O)c(O)c2)c1 [piceatannol, 3,5,3′,4′-Tetrahydroxy-trans-stilbene]",Stimulation of SIRT1 activity,"[7]; initial screen (Table 1, 100 μM)",eight
same,Effect on lifespan (in words),[8],no significant effect
same,Fat mobilization,"[5]; 100 μM, 48 hours",stimulate fat mobilization
"O=c1c(O)c(-c2ccc(O)c(O)c2)oc2cc(O)cc(O)c12 [quercetin, 3,5,7,3′,4′-Pentahydroxyflavone]",Effect on lifespan (in words),[8],no significant effect
same,Fat mobilization,"[5]; 100 μM, 48 hours",stimulate fat mobilization
same,Concentration as low as which fat accumulation is reduced,[5]; 48 hours,10 µM
His6-tagged recombinant SIRT1 (from UniProt Q96EB6) (enzyme),"Km for the p53-382 acetylated peptide (SIRT1 initial deacetylation rate, fluorescence)",[9],64 µM
roziglitazone,Insulin sensitivity (radioactive glucose uptake),[10],increases the uptake of radioactive glucose
